Measured values taken from patent publication US8415453B2, “Lung cancer-targeted peptides and applications thereof” (Academia Sinica, priority 2007, dated 2013).
Where no end group is shown, it is not given here. The star is where a group is joined. FITC = O=C1OC2(c3ccc(O)cc3Oc3cc(O)ccc32)c2ccc(NC(=S)*)cc21

Tests used:
CL1-5 cells [1] = assay: Peptide-binding assay with FITC-labeled peptide, immunofluorescent staining; type: cell-based, human
Method: (§1) To investigate whether the synthetic peptide and the selected phage clone competed for the same binding site, a peptide-competitive inhibition assay was performed by immunofluorescent staining. Targeting peptide TDSILRSYDWTY (SP5-2) [SEQ ID NO: 2] and control peptide (RLLDTNRPLLPY) [SEQ ID NO: 22] were synthesized and purified by reverse-phase high-performance liquid chromatography to >95% purity by Invitrogene, Inc. (CA, USA). Conjugation of these peptides with FITC or biotin was performed by adding FITC or biotin to the peptide NH2 terminus by the same company.

H23 cells = assay: as above; type: cell-based, human
Method: as §1

A549 cells = assay: as above; type: cell-based, human
Method: as §1

PC13 cells = assay: as above; type: cell-based, human
Method: as §1

H460 cells = assay: as above; type: cell-based, human
Method: as §1

CL1-5-derived tumors = assay: In vivo tumor homing, phage titers recovered from tumor and organs; parameters: species or system SCID mice; settings: for effect of co-injected peptide on recovery of PC5-2 from tumor mass: co-injection of 100 μg peptide
Method: (§2) To investigate the targeting ability of PC5-2 in vivo, phages were injected into the tail vein of mice bearing CL1-5-derived tumors and recovered after perfusion. SCID mice were injected subcutaneously into the dorsolateral flank with 1×10^7 cancer cells. The mice bearing size-matched lung cancer-derived tumor (tumor sizes about 500 mm3) were injected with targeting phage or control phage through the tail vein. Eight minutes after injection, the mice were treated with diethyl ether to drive them into deep anesthesia. Then the mice were perfused with 50 ml PBS to wash unbound phage. The control organs (brain, heart, and lung) and tumor mass were removed, weighed, and washed three times with cold PBS-PI (protease inhibitor cocktail tablet; Roche, Germany). The organ and tumor samples were homogenized. Then, the phage bound to the tumor mass or control organs were rescued by adding 0.5 ml ER2738 bacterial for 30 minutes at 37° C. The eluted phage particles were titered on agar plates in the presence of 1 mg/L of IPTG/X-Gal. In peptide competitive inhibition experiments, the phages were co-injected with 100 μg of synthetic peptide. We also used the control peptide. The organs and tumor masses were fixed in Bouin's solution for 2 h. After fixation, the samples were embedded in paraffin blocks. The paraffin sections were deparaffinized, rehydrated and subjected to immunostaining using M13 monoclonal antibody, as mentioned above.

CL1-5 cells [2] = assay: Peptide-competitive inhibition assay by immunofluorescent staining; type: cell-based, human
Method: as §1
Phages were mixed with different concentrations of synthetic peptides and incubated with cells at 4° C. for 1 h. The slides were further incubated with mouse anti-M13 monoclonal antibody (Amersham Biosciences, Uppsala, Sweden), followed by incubation with FITC-labeled goat anti-mouse antibody (Jackson ImmunoResearch). The slides were washed and mounted with mounting medium (Vector, Calif., USA). Then the slides were examined under a Leica Universal microscope. The images were merged by SimplePCI (C-IMAGING, PA, USA) software.

CL1-5 cells [3] = assay: Flow cytometry of phage-bound cells; type: cell-based, human; settings: peptide competitive inhibition
Method: Furthermore, to investigate the target molecule expressed on the cell surface of CL1-5, we measured PC5-2-bound cells using flow cytometry. Lung and other cancer cell lines were cultured overnight and then suspended in PBS containing 50 mM EDTA and blocked with blocking buffer at 4° C. for 30 minutes. The cells were washed 2 times with flow buffer (PBS containing 1% fetal bovine serum). The cells were incubated with phages or FITC-labeled peptide. For the peptide competitive inhibition assay, the phages were mixed with different concentrations of synthetic peptides and the mixture was incubated with the cells. After washing two times with cold flow buffer, the phage-bound cells were incubated with anti-M13 monoclonal antibodies at 4° C. for 1 h and then treated with FITC-conjugated goat anti-mouse IgG antibody. The cells were washed two times with cold flow buffer and then applied to a flow cytometer (Becton Dickinson).

NSCLC xenografts = assay: In vivo tissue distribution of phage by immunostaining; parameters: species or system SCID mice; settings: in vivo homing
Method: as §2, with “The paraffin sections were deparaffinized, rehydrated and subjected to immunostaining using M13 monoclonal antibody, as mentioned above.” left out

In the case of “FITC-labeled control peptide: control peptide RLLDTNRPLLPY with FITC at the NH2 terminus ({FITC}-RLLDTNRPLLPY)”, the “binding of FITC-labeled peptide to cells” value (CL1-5 cells [1]) is reported as “no such binding activity”, the “binding of FITC-labeled peptide to cells” value (H23 cells) is reported as “no such binding activity” and the “binding of FITC-labeled peptide to cells” value (A549 cells) is reported as “no such binding activity”. The “binding of FITC-labeled peptide to cells” value (PC13 cells) was “no such binding activity” and the “binding of FITC-labeled peptide to cells” value (H460 cells) was “no such binding activity”.
In the case of RLLDTNRPLLPY [control peptide], the “effect of co-injected peptide on recovery of PC5-2 from tumor mass” value (CL1-5-derived tumors) is reported as “no such inhibitory effect” and the “effect of synthetic peptide on binding of PC5-2 phage to CL1-5 cells” value (CL1-5 cells [2]) is reported as “no such effect”.
For TDSILRSYDWTY [SP5-2], the “effect of co-injected peptide on recovery of PC5-2 from tumor mass” value (CL1-5-derived tumors) was “markedly inhibited”, the “inhibition of PC5-2 binding to tumor mass” value (CL1-5-derived tumors; co-injection of one hundred micrograms of peptide) was 92% and the “effect of peptide on phage bound to CL1-5 cells” value (CL1-5 cells [3]) was “completely inhibited”. The “effect of synthetic peptide on binding of PC5-2 phage to CL1-5 cells” value (CL1-5 cells [2]) was “inhibited”, the “peptide concentration able to inhibit the PC5-2 binding activity completely” value (CL1-5 cells [2]; CL1-5) was 27 µg/mL and the “effect of peptide on targeting of PC5-2 to NSCLC xenograft” value (NSCLC xenografts) was “inhibited”.
